Here are results for four compounds from paper PMC7190724, “Improved GPCR ligands from nanobody tethering” (Nature Communications, 2020).

Several values for one entry are separate records, joined by “and”; a condition that tells them apart may be missing. Equal values may be shown once. Where a SMILES comes first, the peptide text is derived from it. [ ]: non-standard residue; d: D form. Aib = CC(C)(N)C(=O)O

One assay has as its system blood ionized calcium. As to the kind of experiment: Calcemic response in mice (blood ionized calcium). The assay is classed as in vivo, mouse. The note with it: for iCa measurement, blood ionized calcium: individual mouse. As for the experimental part:
Fig. 5 VHH conjugation potentiates an in vivo response. a Schematic of the experiment performed in mice. b Measurement of blood ionized calcium levels in mice injected with PTH and conjugates. Data presented is from a single experiment. The double line break represents a discontinuity in the Y-axis. Mice (CD1 females, 11 weeks) were injected subcutaneously with the indicated ligand (dose = 35 nmol/kg). Blood was drawn at the indicated time points and analyzed for ionized calcium levels. Data points indicate mean ± standard error of the mean (SEM), n = 4. A two-sided t-test without corrections for multiple comparisons was used for comparisons. *p = 0.005 vs. vehicle. ^#p = 0.015 vs. vehicle. ^●p = 0.038 vs. M-PTH(1-14). °p = 0.008 vs. M-PTH(1-14). The sequence of M-PTH(1-14) used here differs from PTH(1-14) in Fig. 2 and is UVUEIQLMHQXAKW where U is Aib and X is homoarginine. Source data are provided in the Source Data File. […] Traces for the calcemic responses of individual mice is found in Supplementary Fig. 18. Source data can be found in the Source Data file.
Mice (CD1 female, age 11 weeks) were treated in accordance with the ethical guidelines adopted by Massachusetts General Hospital. […] Peptides and conjugates were administered at doses that allowed for differentiation between compounds with differing levels of in vivo activity. Statistical analyses were performed assuming Gaussian distribution of data. Mice (n = 4 per compound) were injected subcutaneously with vehicle (10 mM citric acid/150 mM NaCl/0.05% Tween-80, pH 5.0) or vehicle containing PTH or conjugate at a dose of 35 nmol/kg body weight. […] Blood was withdrawn just before injection (t = 0) or at times thereafter. Tail vein blood was collected and immediately analyzed. Blood Ca^2+ concentration was measured with a Siemens RapidLab 348 Ca2+/pH analyzer.

The target in another assay is T1, PTHR1YFPΔECD (Homo sapiens, UniProt Q03431).
T1 construct: expressed in transfected cells; host or cells: HEK293 (clone GD5Y) with GloSensor cAMP reporter
T1 sequence (Q03431 with tags, fused parts or gaps limits assumed): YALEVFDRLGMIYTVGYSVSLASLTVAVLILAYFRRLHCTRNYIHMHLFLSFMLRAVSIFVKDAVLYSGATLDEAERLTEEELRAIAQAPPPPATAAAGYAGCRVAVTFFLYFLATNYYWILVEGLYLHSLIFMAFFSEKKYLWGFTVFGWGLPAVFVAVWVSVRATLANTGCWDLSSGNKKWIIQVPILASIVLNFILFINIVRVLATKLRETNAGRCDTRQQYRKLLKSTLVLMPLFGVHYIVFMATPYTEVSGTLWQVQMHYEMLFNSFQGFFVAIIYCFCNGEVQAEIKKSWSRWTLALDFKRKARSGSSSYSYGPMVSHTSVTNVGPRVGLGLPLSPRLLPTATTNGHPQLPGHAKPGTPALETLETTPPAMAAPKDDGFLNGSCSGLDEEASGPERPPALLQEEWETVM
Briefly: cAMP response (GloSensor luminescence), HEK293 stably expressing PTHR1YFPΔECD (GD5Y). The note with it: peak GloSensor luminescence; mean ± SD, ≥3 independent experiments; read-out: EC50, cAMP induction. It is filed as cell-based. As for the experimental part: (§1) A HEK293 cell line stably expressing β-Arrestin2-YFP (GBR24) was constructed similarly. PTHR1_6E was produced using the Q5 Site-directed mutagenesis kit (NEB) and used to prepare a stably transfected HEK293-derived cell line. Annotated sequence data for all PTHR1 constructs are found in Supplementary Fig. 19. Aligned sequences of VHHs used in this study are shown in Supplementary Fig. 20.
(§2) These assays were performed as previously described. […] Confluent monolayers of cells were pre-incubated with CO2 independent medium containing D-luciferin (0.5 mM) at 37 °C until a stable baseline level of luminescence was established (20 min). Varying concentrations of ligands were then added, and the time course of luminescence response was recorded using BioTek plate reader.
(§3) Data were processed using Microsoft Excel and GraphPad Prism 6. Data from cAMP dose–response assays were analyzed using a sigmoidal dose–response model with variable slope. Data sets were statistically compared by using Student’s t test (two-tailed) assuming unequal variances for the two sets.

The target of another assay is T2, hPTHR2 (Homo sapiens, UniProt P49190).
T2 construct: expressed in transfected cells
Briefly: cAMP response (GloSensor luminescence), HEK293 stably expressing hPTHR2. The note with it: for EC50: peak GloSensor luminescence, mean ± SD, n = 3-4, read-out: EC50, cAMP induction. The assay is classed as cell-based. On the procedure:
(§4) These assays were performed as previously described. Briefly, HEK-293-derived cell lines that stably express the Glosensor cAMP reporter (Promega Corp.)[30] and PTHR1, a PTHR1 variant, or PTHR2 were seeded into white sided 96-well plates (50,000 cells/well) and grown to confluency. Confluent monolayers of cells were pre-incubated with CO2 independent medium containing D-luciferin (0.5 mM) at 37 °C until a stable baseline level of luminescence was established (20 min). Varying concentrations of ligands were then added, and the time course of luminescence response was recorded using BioTek plate reader. The maximal luminescence response (observed 12–16 min after ligand addition) was used to construct dose-response data sets (Table 1, Supplementary Fig. 6).
as §3

The next assay addresses T3, PTHR1GFP (Homo sapiens, UniProt Q03431).
T3 sequence (Q03431 27-593): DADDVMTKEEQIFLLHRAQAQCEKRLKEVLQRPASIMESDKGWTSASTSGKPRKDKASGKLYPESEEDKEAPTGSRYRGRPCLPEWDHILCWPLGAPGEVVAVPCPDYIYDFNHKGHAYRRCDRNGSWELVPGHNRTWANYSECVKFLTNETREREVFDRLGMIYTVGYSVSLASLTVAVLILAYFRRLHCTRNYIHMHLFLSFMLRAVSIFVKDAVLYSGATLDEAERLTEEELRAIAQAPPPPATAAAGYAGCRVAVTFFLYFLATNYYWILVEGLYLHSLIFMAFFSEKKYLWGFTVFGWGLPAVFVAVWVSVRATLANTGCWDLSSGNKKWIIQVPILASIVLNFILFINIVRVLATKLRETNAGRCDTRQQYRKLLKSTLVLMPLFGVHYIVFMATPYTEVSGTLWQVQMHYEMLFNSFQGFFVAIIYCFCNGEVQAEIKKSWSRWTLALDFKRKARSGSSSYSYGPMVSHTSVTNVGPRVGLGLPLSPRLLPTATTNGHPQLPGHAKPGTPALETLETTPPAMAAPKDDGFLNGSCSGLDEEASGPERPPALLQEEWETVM
As to the kind of experiment: cAMP response (GloSensor luminescence), HEK293 stably expressing PTHR1GFP (GPG10). The assay is classed as cell-based. As for the experimental part: as §4, §3
Supplementary Figure 1. […]
GFP variant known as pHluorin2 engrafted into the receptor(ref. 19, main text). c) HEK293 cells stably expressing PTHR1-GFP were treated with varied doses of the indicated peptides or conjugates and activation was assessed by measuring luminescence from a cAMP-activated luciferase variant. Values listed represent EC50 values (mean ± SD). Each value comes from ≥ 3 independent experiments. Further details, including the number of replicates for each measurement and the normalized maximal responses induced, are reported in Supplementary Table 1. […]
than 5% of the maximal response induced for that cell line.
Peptide or conjugate PTHR1GFP

In another assay the target is T4, hPTHR1 (Homo sapiens, UniProt Q03431).
T4 construct: expressed in transfected cells; host or cells: HEK293 (clone GP2.3) with GloSensor cAMP reporter
T4 sequence (Q03431 27-593): T3 sequence (Q03431 27-593)
As to the kind of experiment: cAMP response (GloSensor luminescence), HEK293 stably expressing human PTHR1 (GP2.3). The assay is classed as cell-based. The note with it: human PTHR1 cells. As for the experimental part:
as §1, §2, §3

T2 sequence (P49190 25-550): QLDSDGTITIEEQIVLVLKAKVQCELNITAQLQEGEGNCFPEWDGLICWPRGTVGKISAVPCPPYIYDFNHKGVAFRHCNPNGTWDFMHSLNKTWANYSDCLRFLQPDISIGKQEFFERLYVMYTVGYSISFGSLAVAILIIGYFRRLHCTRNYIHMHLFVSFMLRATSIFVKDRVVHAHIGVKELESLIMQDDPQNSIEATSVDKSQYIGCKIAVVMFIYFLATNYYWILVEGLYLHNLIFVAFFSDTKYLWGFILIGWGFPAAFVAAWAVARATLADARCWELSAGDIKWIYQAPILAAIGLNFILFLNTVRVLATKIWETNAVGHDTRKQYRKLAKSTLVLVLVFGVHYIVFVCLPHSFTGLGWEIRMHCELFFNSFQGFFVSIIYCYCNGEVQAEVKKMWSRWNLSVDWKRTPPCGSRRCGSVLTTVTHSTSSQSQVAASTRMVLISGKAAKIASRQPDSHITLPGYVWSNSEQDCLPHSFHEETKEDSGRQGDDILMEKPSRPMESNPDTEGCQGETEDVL

For “UVUEIQLMHQXAKW [M-PTH(1-14), modified PTH(1-14) analog used in mice, UVUEIQLMHQXAKW, U is Aib and X is homoarginine]”, the “blood ionized calcium response” value in the assay on blood ionized calcium (35 nmol/kg s.c., CD1 female mice, n = 4, single experiment) is given as “little if any activity”. Further, the “iCa measurement, blood ionized calcium” value is listed as 1.36 mM in the assay on blood ionized calcium (1 h after 35 nmol/kg s.c., 1st of 4 in group (mouse # 5, 9, 13)); 1.34 mM in the assay with blood ionized calcium (1 h after 35 nmol/kg s.c., 2nd of 4 in group (mouse # 6, 10, 14)); 1.29 mM with blood ionized calcium (1 h after 35 nmol/kg s.c., 3rd of 4 in group (mouse # 7, 11, 15)); 1.33 mM in the assay with blood ionized calcium (1 h after 35 nmol/kg s.c., 4th of 4 in group (mouse # 8, 12, 16)); 1.31 mM in the assay on blood ionized calcium (2 h after 35 nmol/kg s.c., 1st of 4 in group (mouse # 5, 9, 13)); 1.32 mM in the assay on blood ionized calcium (2 h after 35 nmol/kg s.c., 2nd of 4 in group (mouse # 6, 10, 14)). Also, the “iCa measurement, blood ionized calcium” value in the assay on blood ionized calcium (2 h after 35 nmol/kg s.c., 3rd of 4 in group (mouse # 7, 11, 15)) is 1.27 mM; in the assay on blood ionized calcium (2 h after 35 nmol/kg s.c., 4th of 4 in group (mouse # 8, 12, 16)), 1.28 mM; in the assay on blood ionized calcium (4 h after 35 nmol/kg s.c., 1st of 4 in group (mouse # 5, 9, 13)) it was 1.31 mM; with blood ionized calcium (4 h after 35 nmol/kg s.c., 2nd of 4 in group (mouse # 6, 10, 14)) it was 1.33 mM; in the assay with blood ionized calcium (4 h after 35 nmol/kg s.c., 3rd of 4 in group (mouse # 7, 11, 15)) it was 1.29 mM; in the assay with blood ionized calcium (4 h after 35 nmol/kg s.c., 4th of 4 in group (mouse # 8, 12, 16)), 1.29 mM. In addition, the “iCa measurement, blood ionized calcium” value with blood ionized calcium (8 h after 35 nmol/kg s.c., 1st of 4 in group (mouse # 5, 9, 13)) is 1.33 mM; in the assay with blood ionized calcium (8 h after 35 nmol/kg s.c., 2nd of 4 in group (mouse # 6, 10, 14)), 1.30 mM; in the assay with blood ionized calcium (8 h after 35 nmol/kg s.c., 3rd of 4 in group (mouse # 7, 11, 15)), 1.28 mM; with blood ionized calcium (8 h after 35 nmol/kg s.c., 4th of 4 in group (mouse # 8, 12, 16)), 1.30 mM. In the assay with blood ionized calcium (2h after injection, 35 nmol/kg s.c.), the “ionized Ca, group value quoted by reviewer” value is recorded as 1.29 mM.

For `CC[C@H](C)[C@H](NC(=O)[C@H](CCC(=O)O)NC(=O)C(C)(C)NC(=O)[C@@H](NC(=O)[C@H](C)N)C(C)C)C(=O)N[C@@H](CCC(N)=O)C(=O)N[C@@H](CC(C)C)C(=O)N[C@@H](CCSC)C(=O)N[C@@H](Cc1c[nH]cn1)C(=O)N[C@@H](CCC(N)=O)C(=O)N[C@@H](CCCNC(=N)N)C(=O)N[C@@H](CS)C(N)=O` [PTH(1-11)] (H-AV[Aib]EIQLMHQRC-NH2), the EC50 at PTHR1YFPΔECD is 246 nM; on hPTHR2, over 100000 nM; on PTHR1GFP it was 79 ± 45 nM. Further, the “response at 100 uM” value on hPTHR2 (100 uM) turned out to be 20%.

“G3-PTH(1-14): PTH(1-14) analog with an N-terminal triglycine extension (SVSEIQLMHNLGKH; N-terminal triglycine extension; UniProt P01270 32-45, looked up, fragment)”: the “cAMP activity” value with hPTHR1 is reported as “reduction in potency”.

As to `CC[C@H](C)[C@H](NC(=O)[C@H](CCC(=O)O)NC(=O)[C@H](CO)NC(=O)[C@@H](NC(=O)[C@@H](N)CO)C(C)C)C(=O)N[C@@H](CCC(N)=O)C(=O)N[C@@H](CC(C)C)C(=O)N[C@@H](CCSC)C(=O)N[C@@H](Cc1c[nH]cn1)C(=O)N[C@@H](CC(N)=O)C(=O)N[C@@H](CC(C)C)C(=O)NCC(=O)N[C@@H](CCCCN)C(=O)N[C@@H](Cc1c[nH]cn1)C(=O)N[C@@H](CC(C)C)C(=O)N[C@@H](CC(N)=O)C(=O)N[C@@H](CO)C(=O)N[C@@H](CCSC)C(=O)N[C@@H](CCC(=O)O)C(=O)N[C@@H](CCCNC(=N)N)C(=O)N[C@H](C(=O)N[C@@H](CCC(=O)O)C(=O)N[C@@H](Cc1c[nH]c2ccccc12)C(=O)N[C@@H](CC(C)C)C(=O)N[C@@H](CCCNC(=N)N)C(=O)N[C@@H](CCCCN)C(=O)N[C@@H](CCCCN)C(=O)N[C@@H](CC(C)C)C(=O)N[C@@H](CCC(N)=O)C(=O)N[C@@H](CC(=O)O)C(=O)N[C@H](C(=O)N[C@@H](Cc1c[nH]cn1)C(=O)N[C@@H](CC(N)=O)C(=O)N[C@@H](Cc1ccccc1)C(=O)N[C@@H](CS)C(N)=O)C(C)C)C(C)C` [PTH(1-34)], the EC50 on PTHR1YFPΔECD was > 500 nM and 689 nM; at hPTHR2, 1.45 ± 2.42 nM; at PTHR1GFP it was 0.4 ± 0.8 nM.
